From patent US10251902B2, “Pharmaceutical composition for treating or preventing neuropsychiatric disease, containing flavone-6-C-glucose derivatives as active ingredients” (priority 2013, dated 2019)

Test system: model of memory impairment induced by scopolamine
Assay: Passive avoidance test in scopolamine-induced memory impairment model
Assay type: in vivo, ICR mice
Conditions: for Main Experiment / Passive Avoidance Learning: Table 2, scopolamine 1 mg/Kg i.p.; for Main Experiment: latency 24 h after learning, up to 300 seconds; for Passive Avoidance Learning: latency in learning trial; for latency time extended compared to that of the control 2: main experiment, control 2 = scopolamine
Procedure: An experiment was conducted to confirm effects of swertisin or isoorientin, and extracts of Swertia pseudochinensis or Swertia japonica containing the same prepared in Examples 1 to 3 in treating dementia by using a model of memory impairment induced by scopolamine. Detailed method follows.
Six-week old ICR mice in about 26 g to 28 g (Orientbio Inc, Republic of Korea) were received water and feed without constraint and adapted for 5 days under an environment having about 23±1° C. of temperature, about 60±10% of humidity and 12-hour light/dark cycle (animal laboratory at College of Pharmacy, Kyung-Hee University), and then used for the experiment.
An apparatus for measuring passive avoidance reaction was prepared. The apparatus has 2 separated chambers (the first and second chambers) and there is a guillotine-shaped passage that connects the first chamber and the second chamber. The first chamber was maintained brightly by using a light, and the second chamber was maintained darkly. A grid was installed on the floor of the second chamber. The grid generates 0.5 mA of electric shock for 3 seconds when the laboratory animal moved into the dark chamber.
About 30 minutes later, 1 mg/Kg of scopolamine, which was dissolved in distilled water, was intraperitoneally administered to the drug administration groups 1 to 4 and controls 1 and 2 (Ebert, U. et al., Eur. J. Clin. Invest., 28, pp 944-949, 1998), and 0.9% of saline solution was intraperitoneally administered to the control 3. After 30 minutes, passive avoidance learning was conducted on the drug administration groups 1-4 and controls 1-3. In detail, the mice were located in the first chamber (i.e. bright space) and the passage was open after about 20 seconds of observation time, and then latency time of the mice moving to the second chamber (i.e. dark space) was measured.
Twenty-four hours after the passive avoidance learning, a main experiment was conducted on the drug administration groups 1-4 and controls 1-3. Latency time of the mice of each group moving their 4 legs into the dark space after 10 seconds of observation time from opening of the guillotine-shaped passage was measured up to 300 seconds. It means that the passive avoidance learning and memory are better if the latency time is longer.
(§1) The passive avoidance test was conducted on the drug administration groups 1-4 and controls 1-3 in the same manner as the method explained above except that swertisin, which is one of the flavone-6-C-β-D-glucose derivatives prepared in Example 3, was dissolved in 10% Tween 80 and administered to the drug administration groups 1-4 in amounts of 1.25 mg/kg, 2.5 mg/kg, 5 mg/kg and 10 mg/kg respectively.
as §1, with “Experimental Example 1-1” for “the method explained above”, “isoorientin,” for “swertisin,”
(§2) The passive avoidance test was conducted on the drug administration groups 1-3 and controls 1-3 in the same manner as Experimental Example 1-1 except that a 70% ethanol extract of Swertia japonica prepared in Example 1, was dissolved in 10% Tween and administered to the drug administration groups 1-3 in amounts of 100 mg/kg, 200 mg/kg and 400 mg/kg respectively.
as §2, with “pseudochinensis” for “japonica”, “2,” for “1,”, “Tween 80” for “Tween”

## COc1cc2oc(-c3ccc(O)cc3)cc(=O)c2c(O)c1[C@@H]1O[C@H](CO)[C@@H](O)[C@H](O)[C@H]1O [swertisin]
Swertisin 1.25 mg/kg
  Main Experiment: 67.13 ± 26.08 s
  Passive Avoidance Learning: 30.20 ± 14.53 s
Swertisin 2.5 mg/kg
  Main Experiment: 82.11 ± 35.20 s
  Passive Avoidance Learning: 19.10 ± 10.37 s
Swertisin 5 mg/kg
  Main Experiment: 117.3 ± 44.16 s
  Passive Avoidance Learning: 20.40 ± 10.11 s
Swertisin 10 mg/kg
  Main Experiment: 117.7 ± 52.28 s
  Passive Avoidance Learning: 29.70 ± 18.76 s
Swertisin 1.25 mg/Kg
  latency time extended compared to that of the control 2: about 2 fold
Swertisin 2.5 mg/Kg
  latency time extended compared to that of the control 2: about 2.5 fold
Swertisin 5 mg/Kg
  latency time extended compared to that of the control 2: about 3 fold
Swertisin 10 mg/Kg
  latency time extended compared to that of the control 2: about 3 fold
